We go through 27 molecules from patent US9434693B2, “Substituted pyrazoles as N-type calcium channel blockers” (Janssen Pharmaceutica NV, priority 2012, dated 2016).

Where a name gives a salt, the structure may show the parent alone.

This assay deals with N-type calcium channel (α1B (Cav2.2), β3 and α2δ subunits) in stable HEK cell line (Homo sapiens (Human), UniProt Q00975). In words: Functional assay (FDSS calcium mobilization): antagonism of N-type calcium channel. The assay is classed as cell-based. Particulars: for IC50: KCl (50 mM) depolarization, six-point concentration-response; for inhibition at 0.33 µM: HEK293; for inhibition at 0.33 µM / % Inhibition (%) at 0.33 μM: FDSS, 0.33 μM compound. Here is the method:
A stable cell line (HEK parent) co-expressing the α1B (Cav2.2), β3 and α2δ subunits of the N-type calcium channel subunits was used. These cells were routinely grown as monolayers in low glucose-containing Dulbecco's Modified Eagle Medium supplemented with 10% FBS, 2 mM L-glutamine, 100 I.U./mL penicillin, 100 μg/mL streptomycin, 400 μg/mL G418 and 200 μg/mL Zeocin (split ratio=1:5). Cells were maintained in 5% CO2 at 37° C. Compounds of Formula (I) were prepared as 10 mM stocks in DMSO from neat compound, if available. Otherwise, the 5 or 10 mM DMSO stock solutions provided in-house were used.
Calcium mobilization responses to KCl depolarization were evaluated by measuring the intensity of calcium-mediated fluorescent signal in the presence of BD Calcium Assay Dye (BD Biosciences, Franklin Lakes, N.J., U.S.A.), utilizing a Functional Drug Screening System (FDSS) by Hamamatsu Corporation (Bridgewater, N.J. U.S.A.).
Twenty-four hr prior to assay, cells were seeded in clear-base poly-D-lysine-coated 384-well plates (BD Biosciences) at a density of 5,000 cells per well in culture medium and grown overnight in 5% CO2 at 37° C. On the day of assay, growth media were removed, and cells were loaded with BD calcium assay dye (BD Biosciences) for 35 min at 37° C. under 5% CO2 and then for 25 min at room temp. Utilizing the FDSS, cells were exposed to representative compounds of Formula (I) at varying concentrations, and intracellular calcium was measured for 5 min prior to the addition of 50 mM KCl for an additional 3 min of measurement.
IC50 values for representative compounds of Formula (I) were determined from six-point concentration-response experiments and represent the concentration of said compound required to inhibit 50% of the maximal response. Maximal fluorescence intensity (FI) achieved upon addition of 50 mM KCl was exported from the FDSS software and further analyzed using GraphPad Prism 3.02 (Graph Pad Software Inc., San Diego, Calif., U.S.A.). Data were normalized to the maximum average counts from quadruplicate wells for each condition in the presence of 50 mM KCl and to the minimum average counts in the presence of buffer. Theoretical curves were generated using nonlinear regression curve-fitting analysis of either sigmoidal concentration-response or sigmoidal concentration-response (variable slope), and the IC50 values with the best-fit curve determined by GraphPad Prism were reported.
For orientation: A change in cytosolic calcium serves as a functional read-out for many receptors and channels.

Chain of N-type calcium channel (α1B (Cav2.2), β3 and α2δ subunits) in stable HEK cell line (Q00975 whole entry): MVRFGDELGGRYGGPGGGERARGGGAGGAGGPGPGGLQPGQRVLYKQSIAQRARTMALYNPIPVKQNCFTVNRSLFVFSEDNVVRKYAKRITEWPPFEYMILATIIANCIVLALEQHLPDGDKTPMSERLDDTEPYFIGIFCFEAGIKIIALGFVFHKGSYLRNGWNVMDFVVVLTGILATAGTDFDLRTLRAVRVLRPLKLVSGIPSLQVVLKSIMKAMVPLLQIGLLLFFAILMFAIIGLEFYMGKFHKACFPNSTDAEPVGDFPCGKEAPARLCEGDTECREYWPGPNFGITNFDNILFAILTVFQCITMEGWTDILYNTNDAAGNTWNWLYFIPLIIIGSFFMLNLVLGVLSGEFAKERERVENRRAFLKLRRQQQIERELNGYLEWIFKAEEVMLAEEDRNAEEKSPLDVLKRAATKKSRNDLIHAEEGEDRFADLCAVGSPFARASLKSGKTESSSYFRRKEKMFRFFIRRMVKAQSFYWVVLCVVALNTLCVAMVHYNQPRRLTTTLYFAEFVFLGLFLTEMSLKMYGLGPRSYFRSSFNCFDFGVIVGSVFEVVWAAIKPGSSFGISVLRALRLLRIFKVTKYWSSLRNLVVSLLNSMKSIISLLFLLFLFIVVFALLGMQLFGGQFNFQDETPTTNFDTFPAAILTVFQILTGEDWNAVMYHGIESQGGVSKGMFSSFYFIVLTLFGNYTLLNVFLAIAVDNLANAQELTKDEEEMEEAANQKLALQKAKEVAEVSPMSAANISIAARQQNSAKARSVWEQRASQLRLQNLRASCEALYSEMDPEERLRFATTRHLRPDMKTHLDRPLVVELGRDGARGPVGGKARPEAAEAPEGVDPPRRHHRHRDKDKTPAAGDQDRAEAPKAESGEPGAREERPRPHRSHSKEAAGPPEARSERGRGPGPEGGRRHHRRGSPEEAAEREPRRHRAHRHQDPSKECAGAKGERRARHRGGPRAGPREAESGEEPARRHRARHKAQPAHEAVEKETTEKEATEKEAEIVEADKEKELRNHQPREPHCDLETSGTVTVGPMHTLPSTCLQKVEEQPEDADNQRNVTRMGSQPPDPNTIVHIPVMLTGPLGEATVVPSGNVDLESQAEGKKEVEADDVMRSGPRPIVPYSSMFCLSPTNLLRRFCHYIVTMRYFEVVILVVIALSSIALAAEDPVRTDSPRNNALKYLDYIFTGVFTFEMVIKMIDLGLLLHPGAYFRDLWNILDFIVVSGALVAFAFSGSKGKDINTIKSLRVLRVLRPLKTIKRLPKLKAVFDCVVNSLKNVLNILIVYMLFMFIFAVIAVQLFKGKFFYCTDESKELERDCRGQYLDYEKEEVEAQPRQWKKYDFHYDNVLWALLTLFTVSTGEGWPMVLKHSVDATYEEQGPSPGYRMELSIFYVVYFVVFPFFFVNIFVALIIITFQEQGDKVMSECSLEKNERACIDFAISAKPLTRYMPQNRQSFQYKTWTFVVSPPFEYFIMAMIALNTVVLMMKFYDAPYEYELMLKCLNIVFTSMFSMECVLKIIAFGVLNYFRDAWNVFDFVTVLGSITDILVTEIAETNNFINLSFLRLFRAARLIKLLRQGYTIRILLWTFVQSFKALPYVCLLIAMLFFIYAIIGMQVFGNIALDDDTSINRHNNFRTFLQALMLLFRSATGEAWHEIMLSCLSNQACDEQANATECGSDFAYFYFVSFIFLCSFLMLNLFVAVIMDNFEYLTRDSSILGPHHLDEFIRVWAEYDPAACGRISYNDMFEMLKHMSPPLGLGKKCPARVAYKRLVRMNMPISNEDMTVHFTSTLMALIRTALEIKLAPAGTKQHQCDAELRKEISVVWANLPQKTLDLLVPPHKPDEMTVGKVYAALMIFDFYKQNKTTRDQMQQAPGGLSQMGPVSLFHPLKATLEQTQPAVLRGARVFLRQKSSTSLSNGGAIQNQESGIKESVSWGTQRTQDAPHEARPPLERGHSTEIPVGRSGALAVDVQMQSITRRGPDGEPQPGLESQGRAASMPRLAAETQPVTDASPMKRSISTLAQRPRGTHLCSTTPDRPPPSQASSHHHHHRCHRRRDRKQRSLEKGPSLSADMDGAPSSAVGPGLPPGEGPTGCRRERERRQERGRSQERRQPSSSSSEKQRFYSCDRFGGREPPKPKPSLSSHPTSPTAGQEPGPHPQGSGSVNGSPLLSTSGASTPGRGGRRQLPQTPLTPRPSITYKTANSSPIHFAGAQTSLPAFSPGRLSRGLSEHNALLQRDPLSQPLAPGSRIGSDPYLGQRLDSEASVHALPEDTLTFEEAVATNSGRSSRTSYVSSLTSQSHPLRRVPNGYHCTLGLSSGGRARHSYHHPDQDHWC
Chain of N-type calcium channel (α1B (Cav2.2), β3 and α2δ subunits) in stable HEK cell line (P54284 whole entry partner): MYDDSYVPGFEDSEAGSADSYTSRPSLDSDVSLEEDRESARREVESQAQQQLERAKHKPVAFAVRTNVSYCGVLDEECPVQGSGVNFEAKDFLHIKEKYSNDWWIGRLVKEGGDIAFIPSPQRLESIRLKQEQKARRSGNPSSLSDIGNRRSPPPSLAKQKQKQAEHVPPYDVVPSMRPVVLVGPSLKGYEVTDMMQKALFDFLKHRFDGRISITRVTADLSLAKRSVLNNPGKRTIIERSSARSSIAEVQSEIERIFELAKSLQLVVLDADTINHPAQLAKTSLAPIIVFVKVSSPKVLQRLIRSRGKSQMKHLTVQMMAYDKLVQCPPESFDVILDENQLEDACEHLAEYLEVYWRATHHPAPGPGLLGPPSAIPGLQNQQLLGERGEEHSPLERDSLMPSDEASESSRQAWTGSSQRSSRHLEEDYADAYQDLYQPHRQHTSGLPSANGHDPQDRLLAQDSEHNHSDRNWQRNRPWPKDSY
Chain of N-type calcium channel (α1B (Cav2.2), β3 and α2δ subunits) in stable HEK cell line (P54289 25-1103 partner): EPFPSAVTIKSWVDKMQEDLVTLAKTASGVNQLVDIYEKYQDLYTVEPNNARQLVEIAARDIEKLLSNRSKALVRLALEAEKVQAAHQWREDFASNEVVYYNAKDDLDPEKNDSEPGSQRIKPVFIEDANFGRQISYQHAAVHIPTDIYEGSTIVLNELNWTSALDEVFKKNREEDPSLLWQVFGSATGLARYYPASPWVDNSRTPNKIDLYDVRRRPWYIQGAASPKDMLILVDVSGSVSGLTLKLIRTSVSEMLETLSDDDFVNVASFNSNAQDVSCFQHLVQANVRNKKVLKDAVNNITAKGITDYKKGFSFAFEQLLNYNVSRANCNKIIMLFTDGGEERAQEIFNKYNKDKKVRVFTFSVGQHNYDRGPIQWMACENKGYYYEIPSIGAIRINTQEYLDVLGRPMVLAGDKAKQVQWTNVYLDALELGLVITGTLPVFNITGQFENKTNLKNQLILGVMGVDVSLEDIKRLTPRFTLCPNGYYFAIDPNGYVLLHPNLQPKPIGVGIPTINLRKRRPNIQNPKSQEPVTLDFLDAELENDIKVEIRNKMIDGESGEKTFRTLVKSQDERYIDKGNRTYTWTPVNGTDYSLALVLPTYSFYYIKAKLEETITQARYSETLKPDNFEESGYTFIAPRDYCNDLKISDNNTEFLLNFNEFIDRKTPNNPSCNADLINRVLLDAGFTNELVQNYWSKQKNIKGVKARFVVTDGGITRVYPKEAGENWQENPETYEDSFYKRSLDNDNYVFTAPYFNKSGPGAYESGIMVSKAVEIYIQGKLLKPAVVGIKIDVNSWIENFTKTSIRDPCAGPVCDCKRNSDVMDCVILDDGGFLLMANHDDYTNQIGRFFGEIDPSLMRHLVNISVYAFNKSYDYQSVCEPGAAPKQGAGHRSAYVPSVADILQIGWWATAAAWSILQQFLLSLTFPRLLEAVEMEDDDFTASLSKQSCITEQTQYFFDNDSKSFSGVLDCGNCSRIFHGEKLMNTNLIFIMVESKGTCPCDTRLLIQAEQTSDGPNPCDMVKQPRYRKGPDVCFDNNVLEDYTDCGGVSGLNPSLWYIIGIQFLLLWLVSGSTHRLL

For orientation: IC50 means the point on the concentration scale where inhibition reaches its midpoint. Consider `CCc1ccccc1-n1nc(OC2CCC3(CC2)OCCO3)cc1-c1ccc(Cl)cc1` [Compound 17, 5-(4-Chlorophenyl)-3-(1,4-dioxaspiro[4.5]dec-8-yloxy)-1-(2-ethylphenyl)-1H-pyrazole], for which the IC50 was found to be 81 nM.

For orientation: inhibition means the share of the control response that was lost under treatment. As to `COc1ccccc1-n1nc(OC2CC(C)(C)C(O)C(C)(C)C2)cc1-c1ccc(Cl)cc1` (stereo not shown) [Compound 42, 4-{[5-(4-Chlorophenyl)-1-(2-methoxyphenyl)-1H-pyrazol-3-yl]oxy}-2,2,6,6-tetramethylcyclohexanol], the inhibition at 0.33 µM was determined as 78% and the IC50 was 39 nM.

Regarding `COc1ccccc1-n1nc(OC2CCOCC2)cc1-c1ccc(Cl)cc1` [Compound 6, 5-(4-Chlorophenyl)-1-(2-methoxyphenyl)-3-(tetrahydro-2H-pyran-4-yloxy)-1H-pyrazole], the inhibition at 0.33 µM was found to be 98% and the IC50 is 15 nM.

In the case of `COc1ccccc1-n1nc(OC2CCS(=O)(=O)CC2)cc1-c1ccc(Cl)cc1` [Compound 10, 5-(4-Chlorophenyl)-3-[(1,1-dioxidotetrahydro-2H-thiopyran-4-yl)oxy]-1-(2-methoxyphenyl)-1H-pyrazole], the IC50 was found to be 30 nM.

Regarding `COc1ccccc1-n1nc(O[C@H]2CC[C@@H](N)CC2)cc1-c1ccc(Cl)cc1` [Compound 12, cis-4-{[5-(4-Chlorophenyl)-1-(2-methoxyphenyl)-1H-pyrazol-3-yl]oxy}cyclohexanamine trifluoroacetate], the IC50 turned out to be 400 nM.

With `COc1ccccc1-n1nc(OC2CC(C)(C)S(=O)(=O)C(C)(C)C2)cc1-c1ccc(C#N)cc1` [Compound 45, 4-{1-(2-Methoxyphenyl)-3-[(2,2,6,6-tetramethyl-1,1-dioxidotetrahydro-2H-thiopyran-4-yl)oxy]-1H-pyrazol-5-yl}benzonitrile], the inhibition at 0.33 µM was 99% and the IC50 amounted to 2.4 nM.

For `COc1ccccc1-n1nc(OC2CCSCC2)cc1-c1ccc(Cl)cc1` [Compound 7, 5-(4-Chlorophenyl)-1-(2-methoxyphenyl)-3-(tetrahydro-2H-thiopyran-4-yloxy)-1H-pyrazole], the IC50 turned out to be 28 nM.

As for `COc1ccccc1-n1nc(OC2CCC(F)(F)CC2)cc1-c1ccc(Cl)cc1` [Compound 16, 5-(4-Chlorophenyl)-3-[(4,4-difluorocyclohexyl)oxy]-1-(2-methoxyphenyl)-1H-pyrazole], the IC50 amounted to 41 nM.

Consider `COc1ccccc1-n1nc(OC2CC(C)(C)SC(C)(C)C2)cc1-c1ccc(Cl)cc1` [Compound 36, 5-(4-Chlorophenyl)-1-(2-methoxyphenyl)-3-[(2,2,6,6-tetramethyltetrahydro-2H-thiopyran-4-yl)oxy]-1H-pyrazole], for which the inhibition at 0.33 µM stood at 91% and the IC50 was 5.9 nM.

`COc1ccccc1-n1nc(OC2CCN(S(=O)(=O)C(F)(F)F)CC2)cc1-c1ccc(Cl)cc1` [Compound 14, 4-{[5-(4-Chlorophenyl)-1-(2-methoxyphenyl)-1H-pyrazol-3-yl]oxy}-1-[(trifluoromethyl)sulfonyl]piperidine]: the half-inhibitory concentration (IC50) worked out at 24 nM.

With `COc1ccccc1-n1nc(OC2CCN(CC(F)(F)F)CC2)cc1-c1ccc(Cl)cc1` [Compound 8, 4-{[5-(4-Chlorophenyl)-1-(2-methoxyphenyl)-1H-pyrazol-3-yl]oxy}-1-(2,2,2-trifluoroethyl)piperidine], the concentration for half-maximal inhibition (IC50) was 31 nM.

Take `COc1ccccc1-n1nc(OC2CCN(C(=O)OC(C)(C)C)CC2)cc1-c1ccc(Cl)cc1` [Compound 1, tert-Butyl 4-{[5-(4-chlorophenyl)-1-(2-methoxyphenyl)-1H-pyrazol-3-yl]oxy}piperidine-1-carboxylate]: the 50% inhibitory concentration (IC50) is 30 nM.

Regarding `COc1ccccc1-n1nc(O[C@H]2CC(C)(C)[S@@+]([O-])C(C)(C)C2)cc1-c1ccc(Cl)cc1.O=C(O)C(F)(F)F` [Compound 39, (1 s,4s)-4-((5-(4-chlorophenyl)-1-(2-methoxyphenyl)-1H-pyrazol-3-yl)oxy)-2,2,6,6-tetramethyltetrahydro-2H-thiopyran 1-oxide trifluoroacetate], the “% Inhibition (%) at 0.33 μM” value is listed as 99% and the IC50 is 1.5 nM.

Turning to `COc1ccccc1-n1nc(OC2CN(S(=O)(=O)C(C)C)C2)cc1-c1ccc(Cl)cc1` [Compound 25, 5-(4-Chlorophenyl)-1-(2-methoxyphenyl)-3-({1-[(1-methylethyl)sulfonyl]azetidin-3-yl}oxy)-1H-pyrazole], the inhibition at 0.33 µM is 92% and the IC50 is 36 nM.

Take `COc1ccccc1-n1nc(O[C@H]2CC(C)(C)[S@+]([O-])C(C)(C)C2)cc1-c1ccc(C#N)cc1` [Compound 46]: the “% Inhibition (%) at 0.33 μM” value is 90% and the 50% inhibitory concentration (IC50) came to 14 nM.

Regarding `COc1ccccc1-n1nc(OC2CN(C(=O)OC(C)(C)C)C2)cc1-c1ccc(Cl)cc1` [Compound 22, tert-Butyl 3-{[5-(4-chlorophenyl)-1-(2-methoxyphenyl)-1H-pyrazol-3-yl]oxy}azetidine-1-carboxylate], the inhibition at 0.33 µM was determined as 90% and the IC50 was found to be 67 nM.

Take `COc1ccc(-c2cc(OC3CC(C)(C)SC(C)(C)C3)nn2-c2ccccc2OC)cc1` [Compound 32, 1-(2-Methoxyphenyl)-5-(4-methoxyphenyl)-3-[(2,2,6,6-tetramethyltetrahydro-2H-thiopyran-4-yl)oxy]-1H-pyrazole]: the inhibition at 0.33 µM came out at 93% and the IC50 amounted to 6 nM.

Turning to `COc1ccccc1-n1nc(OC2CC(C)(C)C(=O)C(C)(C)C2)cc1-c1ccc(Cl)cc1` [Compound 41, 4-{[5-(4-Chlorophenyl)-1-(2-methoxyphenyl)-1H-pyrazol-3-yl]oxy}-2,2,6,6-tetramethylcyclohexanone], the inhibition at 0.33 µM came to 92%.

On to `CCc1ccccc1-n1nc(OC2CCN(S(C)(=O)=O)CC2)cc1-c1ccc(Cl)cc1` [Compound 19, 4-{[5-(4-Chlorophenyl)-1-(2-ethylphenyl)-1H-pyrazol-3-yl]oxy}-1-(methylsulfonyl)piperidine], for which the IC50 turned out to be 98.5 nM.

For `COc1ccccc1-n1nc(OC2CC(C)(C)OC(C)(C)C2)cc1-c1ccc(C#N)cc1` [Compound 43, 4-{1-(2-Methoxyphenyl)-3-[(2,2,6,6-tetramethyltetrahydro-2H-pyran-4-yl)oxy]-1H-pyrazol-5-yl}benzonitrile], the inhibition at 0.33 µM was 90% and the IC50 was determined as 7.2 nM.

Take `COc1ccccc1-n1nc(OC2CCN(C(=O)C(F)(F)F)CC2)cc1-c1ccc(Cl)cc1` [Compound 9, 4-{[5-(4-Chlorophenyl)-1-(2-methoxyphenyl)-1H-pyrazol-3-yl]oxy}-1-(trifluoroacetyl)piperidine]: the IC50 was determined as 31.4 nM.

For `CC(C)(C)Oc1ccccc1-n1nc(OC2CCN(S(C)(=O)=O)CC2)cc1-c1ccc(Cl)cc1` [Compound 24, 4-{[1-(2-tert-Butoxyphenyl)-5-(4-chlorophenyl)-1H-pyrazol-3-yl]oxy}-1-(methylsulfonyl)piperidine], the inhibition at 0.33 µM was 57%.

For `COc1ccccc1-n1nc(O[C@H]2CC[C@@H](NC(=O)OC(C)(C)C)CC2)cc1-c1ccc(Cl)cc1` [Compound 11, tert-Butyl (cis-4-{[5-(4-chlorophenyl)-1-(2-methoxyphenyl)-1H-pyrazol-3-yl]oxy}cyclohexyl)carbamate], the IC50 is 62 nM.

On to `COc1ccc(-c2cc(O[C@H]3CC(C)(C)[S@+]([O-])C(C)(C)C3)nn2-c2ccccc2OC)cc1` [Compound 34, (1r,4r)-4-((1-(2-methoxyphenyl)-5-(4-methoxyphenyl)-1H-pyrazol-3-yl)oxy)-2,2,6,6-tetramethyltetrahydro-2H-thiopyran 1-oxide], for which the “% Inhibition (%) at 0.33 μM” value was determined as 94% and the IC50 was 4.5 nM.

With `COc1ccccc1-n1nc(OCC2C(C)(C)OC2(C)C)cc1-c1ccc(Cl)cc1` [Compound 40], the inhibition at 0.33 µM came to 95% and the IC50 stood at 3.1 nM.

In the case of `COc1ccccc1-n1nc(OC2CCN(S(C)(=O)=O)CC2)cc1-c1ccc(Cl)cc1` [Compound 5, 4-{[5-(4-Chlorophenyl)-1-(2-methoxyphenyl)-1H-pyrazol-3-yl]oxy}-1-(methylsulfonyl)piperidine], the IC50 is 15 nM.

For `COc1ccccc1-n1nc(OC2CC(C)(C)S(=O)(=O)C(C)(C)C2)cc1-c1ccc(Cl)cc1` [Compound 37, 5-(4-Chlorophenyl)-1-(2-methoxyphenyl)-3-[(2,2,6,6-tetramethyl-1,1-dioxidotetrahydro-2H-thiopyran-4-yl)oxy]-1H-pyrazole], the inhibition at 0.33 µM was 98% and the 50% inhibitory concentration (IC50) is 1.9 nM.
